The source of these data is ChEMBL document CHEMBL5678818, “Discovery of potent SOS1 inhibitors that block RAS activation via disruption of the RAS-SOS1 interaction” (Proc Natl Acad Sci U S A, 2019).

The target in test [1] is T1, Mitogen-activated protein kinase kinase kinase 2 (Homo sapiens) (UniProt Q9Y2U5).
T1 sequence (whole entry): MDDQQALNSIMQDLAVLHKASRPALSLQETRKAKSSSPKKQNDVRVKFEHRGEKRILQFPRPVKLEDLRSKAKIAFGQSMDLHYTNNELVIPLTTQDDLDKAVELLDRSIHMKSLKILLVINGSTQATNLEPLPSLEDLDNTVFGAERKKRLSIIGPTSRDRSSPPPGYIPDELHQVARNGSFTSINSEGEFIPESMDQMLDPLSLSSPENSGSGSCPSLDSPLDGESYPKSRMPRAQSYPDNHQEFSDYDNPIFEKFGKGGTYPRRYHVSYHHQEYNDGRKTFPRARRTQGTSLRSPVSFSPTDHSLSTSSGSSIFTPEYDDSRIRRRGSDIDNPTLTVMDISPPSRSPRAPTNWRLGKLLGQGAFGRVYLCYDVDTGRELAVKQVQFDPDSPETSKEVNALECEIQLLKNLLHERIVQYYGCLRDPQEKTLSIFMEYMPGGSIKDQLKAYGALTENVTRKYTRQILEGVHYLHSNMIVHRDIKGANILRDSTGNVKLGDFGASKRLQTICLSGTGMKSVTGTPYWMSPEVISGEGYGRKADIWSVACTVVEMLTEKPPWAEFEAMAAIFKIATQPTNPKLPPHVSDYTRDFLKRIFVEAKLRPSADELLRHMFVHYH
In words: Inhibition of MAP3K2 (unknown origin) assessed as residual activity at 1000 nM by KINOMEscan analysis relative to control.

In test [2] the target is Ribosomal protein S6 kinase alpha-1 (Homo sapiens) (UniProt Q15418). The test can be described thus: Inhibition of C-terminal RSK1 kinetic domain 2 (unknown origin) assessed as residual activity at 1000 nM by KINOMEscan analysis relative to control.
In test [3] the target is T2, Serine/threonine-protein kinase BRSK2 (Homo sapiens) (UniProt Q8IWQ3).
T2 sequence (whole entry): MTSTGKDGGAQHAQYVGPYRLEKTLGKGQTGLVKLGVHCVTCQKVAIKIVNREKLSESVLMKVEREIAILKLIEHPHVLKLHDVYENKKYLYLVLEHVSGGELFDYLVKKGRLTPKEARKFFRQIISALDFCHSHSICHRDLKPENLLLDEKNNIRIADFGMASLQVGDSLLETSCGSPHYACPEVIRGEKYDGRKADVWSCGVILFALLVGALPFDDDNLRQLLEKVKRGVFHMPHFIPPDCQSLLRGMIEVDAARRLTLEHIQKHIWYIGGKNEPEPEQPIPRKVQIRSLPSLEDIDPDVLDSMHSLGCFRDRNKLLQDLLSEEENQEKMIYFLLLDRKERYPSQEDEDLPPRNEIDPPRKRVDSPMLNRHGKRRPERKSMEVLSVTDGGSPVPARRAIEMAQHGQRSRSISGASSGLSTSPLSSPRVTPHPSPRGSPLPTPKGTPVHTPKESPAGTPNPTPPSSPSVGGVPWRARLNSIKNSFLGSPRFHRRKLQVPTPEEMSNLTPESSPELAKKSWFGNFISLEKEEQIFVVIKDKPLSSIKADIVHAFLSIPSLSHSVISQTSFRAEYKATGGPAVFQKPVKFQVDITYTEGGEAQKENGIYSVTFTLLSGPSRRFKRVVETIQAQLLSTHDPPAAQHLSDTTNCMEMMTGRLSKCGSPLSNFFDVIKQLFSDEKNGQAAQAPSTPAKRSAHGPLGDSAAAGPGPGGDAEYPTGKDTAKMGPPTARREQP
In words: Inhibition of BRSK2 (unknown origin) assessed as residual activity at 1000 nM by KINOMEscan analysis relative to control.

The target of test [4] is T3, Rhodopsin kinase GRK7 (Homo sapiens) (UniProt Q8WTQ7).
T3 sequence (whole entry): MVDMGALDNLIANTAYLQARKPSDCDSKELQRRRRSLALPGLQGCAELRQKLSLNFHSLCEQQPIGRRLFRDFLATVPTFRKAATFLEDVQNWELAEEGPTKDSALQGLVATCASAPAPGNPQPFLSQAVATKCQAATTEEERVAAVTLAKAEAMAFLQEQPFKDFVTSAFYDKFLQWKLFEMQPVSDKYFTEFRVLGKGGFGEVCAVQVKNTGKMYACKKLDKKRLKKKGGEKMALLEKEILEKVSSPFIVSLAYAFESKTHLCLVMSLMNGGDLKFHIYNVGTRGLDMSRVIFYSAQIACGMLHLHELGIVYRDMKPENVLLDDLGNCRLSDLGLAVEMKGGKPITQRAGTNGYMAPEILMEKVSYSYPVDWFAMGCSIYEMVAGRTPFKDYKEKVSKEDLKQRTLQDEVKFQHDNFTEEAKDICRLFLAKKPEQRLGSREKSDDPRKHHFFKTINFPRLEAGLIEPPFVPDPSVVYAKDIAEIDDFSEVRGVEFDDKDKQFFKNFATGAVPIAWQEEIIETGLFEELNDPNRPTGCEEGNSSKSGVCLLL
The test can be described thus: Inhibition of GRK7 (unknown origin) assessed as residual activity at 1000 nM by KINOMEscan analysis relative to control.

The target of test [5] is T4, Dual specificity mitogen-activated protein kinase kinase 5 (Homo sapiens) (UniProt Q13163).
T4 sequence (whole entry): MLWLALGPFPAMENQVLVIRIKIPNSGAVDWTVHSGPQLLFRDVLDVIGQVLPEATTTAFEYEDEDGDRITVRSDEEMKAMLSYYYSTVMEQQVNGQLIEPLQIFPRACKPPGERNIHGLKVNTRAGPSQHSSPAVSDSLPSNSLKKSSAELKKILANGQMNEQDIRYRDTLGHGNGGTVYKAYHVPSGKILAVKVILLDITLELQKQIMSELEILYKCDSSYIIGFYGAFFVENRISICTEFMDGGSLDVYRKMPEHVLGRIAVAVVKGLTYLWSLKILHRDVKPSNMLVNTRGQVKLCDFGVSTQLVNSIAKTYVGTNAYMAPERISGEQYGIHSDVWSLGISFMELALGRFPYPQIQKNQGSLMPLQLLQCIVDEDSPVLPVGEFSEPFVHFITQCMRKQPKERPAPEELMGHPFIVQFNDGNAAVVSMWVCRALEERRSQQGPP
In words: Inhibition of MEK5 (unknown origin) assessed as residual activity at 1000 nM by KINOMEscan analysis relative to control.

Ribosomal protein S6 kinase alpha-1 (Homo sapiens), sequence (Q15418 whole entry, the tested form may be a part): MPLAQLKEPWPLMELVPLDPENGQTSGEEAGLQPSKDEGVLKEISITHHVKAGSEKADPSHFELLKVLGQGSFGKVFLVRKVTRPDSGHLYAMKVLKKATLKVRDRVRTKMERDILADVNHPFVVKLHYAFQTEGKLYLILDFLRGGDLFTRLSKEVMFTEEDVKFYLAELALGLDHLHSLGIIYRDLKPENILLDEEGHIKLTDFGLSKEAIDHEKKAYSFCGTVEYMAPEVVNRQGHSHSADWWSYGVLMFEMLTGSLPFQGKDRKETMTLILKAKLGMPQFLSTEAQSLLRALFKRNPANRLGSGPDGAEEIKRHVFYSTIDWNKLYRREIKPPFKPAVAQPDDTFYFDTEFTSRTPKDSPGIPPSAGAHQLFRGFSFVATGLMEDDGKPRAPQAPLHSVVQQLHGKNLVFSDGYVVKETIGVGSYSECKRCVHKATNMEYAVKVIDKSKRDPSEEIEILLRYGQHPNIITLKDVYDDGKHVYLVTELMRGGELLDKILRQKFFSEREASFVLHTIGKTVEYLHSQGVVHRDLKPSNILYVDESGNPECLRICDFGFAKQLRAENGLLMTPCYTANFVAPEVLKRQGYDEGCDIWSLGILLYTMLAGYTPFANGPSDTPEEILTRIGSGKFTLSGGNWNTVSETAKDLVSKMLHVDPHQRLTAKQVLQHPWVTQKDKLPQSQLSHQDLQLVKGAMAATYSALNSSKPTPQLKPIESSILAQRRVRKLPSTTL

As for `COc1cc2nc(C)nc(N[C@H](C)c3cccc(-c4cn[nH]c4)c3)c2cc1OC`, the Activity in test [1] worked out at 76%; in test [2], 99%; in test [3] it was 85%; in test [4], 100%; in test [5], 61%.

Take `COc1cc2ncnc(N[C@H](C)c3cccc4ccccc34)c2cc1OC`: the Activity in test [1] is 100%; in test [2], 100%; in test [3], 78%; in test [4], 81%; in test [5] it was 89%.
